Laboratory results: patent publication US9845457B2, “Maintenance of genomic stability in cultured stem cells” (Cedars-Sinai Medical Center, priority 2010, dated 2017)

Legend:
[1] = tested on: human cardiosphere-derived cells; assay: Intracellular ROS levels (DCF fluorescence) after 24 hours short-term exposure; assay type: cell-based; details: 20% O2, antioxidant A 100-1,000,000-fold dilution, B 0.1-1000 μM, catalase 0.1-1000 units/ml, H2O2 0.1-1000 μM
Experimental: To assay intracellular ROS levels (ROS levels), twice-passaged CDCs were seeded in 6- or 96-well plates coated with 20 μg/ml fibronectin, and continuously cultured under the abovementioned four different conditions. At about 90% confluence, cells were incubated with 10 μM 2′,7′-dichlorodihydrofluorescein diacetate (DCFH-DA) (Invitrogen) for 60 min to allow DCFH-DA to diffuse into cells. The DCF fluorescence intensity in cells cultured in 96-well plates is directly determined using SpectraMax® M5 (Molecular Devices Corp.) with an excitation wavelength of 495 nm and an emission wavelength of 520 nm. Cells cultured in 6-well plates were trypsin-treated and fixed. The DCF fluorescence intensity in cells was analyzed using a FACS Calibur flow cytometer with CellQuest software (BD Biosciences).
Twice-passaged cells were seeded in 6- or 96-well plates coated with 20 μg/ml fibronectin. […] After 24 hours of culture, the DCF fluorescence intensity in cells was measured using the same methods as disclosed above.
CDCs were initially maintained in traditional 5% CO2/20% O2 culture condition and then seeded into 96-well plates and cultured for 24 hours under experimental conditions. […] Dev. for six separate experiments using different twice-passaged CDCs. (a.u.: arbitrary units. * p<0.01, †p<0.05 vs. the baseline levels, represented by “0” on the x-axis). […]

human CDCs = assay type: cell-based
Experimental: CDCs were expanded in conventional conditions under 20% O2 as described above. Twice-passaged CDCs and ES cells were used in these Examples. Cells were seeded in 96-well plates coated with 20 μg/ml fibronectin. […] After 24 hours of culture, cells were fixed, permeabilized and stained with rabbit polyclonal antibody against γ-H2AX (phosphor 5139, Abeam Inc.). After being washed, the cells were stained with a PE-conjugated secondary antibody and 4,6-diamidino-2-phenylindole (DAPI). Quantification of cells positive for γ-H2AX foci was performed by fluorescence microscopy (×40 magnification). Briefly, at least 5 images were captured from each culture condition from randomly-selected fields using Q-imaging (RETIGA EXi FAST, Canada) with the same exposure time. Cells with γ-H2AX foci in the nuclei were counted by a single observer blinded to treatment regimen, and the percentage of cells with γ-H2AX foci in each culture condition was used for statistical analysis.

[2] = tested on: ATR, Rad50, Rad51, Chk1, Chk2; assay: Western blotting of other DNA repair factors after 24 hours short-term exposure; assay type: cell-based, human; details: 20% O2, high concentrations
Experimental: To examine the protein levels of ATM and other DNA repair-related factors, total protein was purified from twice-passaged CDCs cultured under the abovementioned four different conditions, using well-established laboratory techniques. Briefly, harvested cells were homogenized in a lysis buffer containing a protease inhibitor mixture (Roche Applied Science) on ice. After centrifugation at 15,000 rpm for 10 min, the supernatant was collected for experiments. The equivalent of 30 μg of total protein was loaded onto 5% or 10% SDS-PAGE gels, and then transferred to PVDF membranes. […] Quantitation for blots was done by Quantity One software, and expressions were normalized by β-actin.
Twice-passaged cells were seeded in 6-well plates coated with 20 μg/ml fibronectin. […] The expression of ATM and other DNA repair-related factors was assessed by Western blotting as described above.

Compound	ROS levels, dose response [1]	percentage of CDCs with γ-H2AX foci (DNA damage), dose response (human CDCs)	expression levels of ATR, Rad50, Rad51, Chk-1, and Chk-2 [2]
OO [Antioxidant H2O2, hydrogen peroxide]	increased	increased DNA damage dose-dependently	increased
catalase	decreased	A similar result	slightly or obviously decreased
